US9532945B2, “Oral dosage forms including an antiplatelet agent and an enterically coated acid inhibitor” (KG ACQUISITION LLC, priority 2006, dated 2017)

Experiments:
[1] = Excipient compatibility study: physical appearance; type: physicochemical; design: key: T: Off white powder with pellets; V: Off white powder with white pellets; W: Off white powder with off white pellets; X: Off white powder without pellets; Y: Off white powder with pellets and shells; Z: Sticky off white powder with grey pellets; S: Off white powder with blue pellets; R: Off white powder with grey pellets; Q: Off white powder with brown pellets; P: Brownish sticky powder with gray pellets; Off white powder with sticking brown pellets; N: Brownish sticky powder with blue pellets; M: Slight yellow powder with grey pellets; Light brownish sticky powder with off white pellets; K: Slight yellow agglutinate; J: Sticky off white powder with off white pellets; I: Capsule shells with white pellets and off white powder; H: Capsule shells with yellowish pellets and off white powder; conditions: stored at 40° C./75% RH
Experimental: In addition to the excipients used in the commercial formulation, some commonly used excipients were also tested. […] Samples were stored also at 25° C./60% RH to be tested only if the stress sample failed. […] The development work explored the compatibility of both APIs together with each of the proposed excipients individually in different ratios depending on the function of the excipient at different temperature and humidity conditions. The selected excipients were mixed with the APIs in different ratios depending on the excipient functionality (Table 5). In addition, samples of pure APIs and excipients were prepared and provided as reference and control respectively.

[2] = at a pH greater than about 4; cited from earlier work

Compound	Physical Appearance ([1]; 1 week)	Physical Appearance ([1]; 2 weeks)	Physical Appearance ([1]; 4 weeks)	Physical Appearance ([1]; 6 weeks)	Physical Appearance ([1]; 8 weeks)	Physical Appearance ([1]; 12 weeks)	Physical Appearance ([1]; Initial)	solubility [2]
COC(=O)[C@H](c1ccccc1Cl)N1CCc2sccc2C1 [Clopidogrel Bisulfate]	X	X	X	X	X	X	X	
COC(=O)[C@H](c1ccccc1Cl)N1CCc2sccc2C1 [clopidogrel]								reduced solubility
